From patent US20240092728A1, “HYDROXY-SUBSTITUTED SPHINGOLIPIDS” (Evonik Operations GmbH, priority 2021, published 2024)

Key:
[1] = system: normal human epidermal keratinocytes (NHEK); experiment: DNA damage and repair after UV irradiation (Comet assay); assay type: cell-based
Protocol: (§1) The extent to which the substances of the invention are able to exert a protective effect on normal human epidermal keratinocytes (NHEK) exposed to UV irradiation was examined.
(§2) For this, corresponding investigations were carried out of biomarkers for reactive oxygen species (ROS), quantified with 2,7-dichlorodihydrofluorescein diacetate, and DNA damage and repair, quantified by the Comet assay.
6-well plates were seeded with the keratinocytes, which were incubated for 48 hours in culture medium, with the medium replenished after 24 hours. The medium was then replaced by culture medium containing the test compounds or the references (0.3 mM control) or in which they were absent (control) and the cells were incubated for 24 hours. After the preincubation, the culture medium was removed and assay medium again added and the cells were irradiated with 250 mJ/cm^2 UVB+UVA (+1.6 J/cm^2) in the absence of the compounds. The lamp used was a SOL500 solar simulator (Dr. Hönle, AG) fitted with an H2 filter. An unirradiated control condition was carried out in parallel. All experimental conditions were carried out in duplicate.
At the end of the irradiation, the culture supernatants were discarded and the cells were washed with phosphate-buffered saline (PBS) prior to analysis.
The cells were trypsinized and counted and the supernatant was removed after centrifugation. The cells were then washed with PBS solution and suspended in the same PBS solution so as to achieve a cell concentration of 1×10^5 cells/ml. The cell suspension was then mixed with molten (37° C.) 1% agarose gel of low melting point and pipetted onto the Comet microscope slides (duplicate analysis for each condition). For cell lysis, the microscope slides were immersed in a freshly prepared alkaline solution (200 mM NaOH containing 1 mM EDTA, pH>13) on an electrophoresis support. The gel electrophoresis was carried out at 21 volts for 30 minutes. The Comet microscope slides were washed twice with water, each time for 5 minutes, then washed with 70% ethanol for 5 minutes and air-dried at 37° C. for 15 minutes.
After the electrophoresis, each dried sample was stained with a DNA intercalating fluorescent dye (SYBR Green solution). The cells were then observed in epifluorescence using an automated IN Cell Analyzer™ 2200 microscope image analyser (GE Healthcare) (X10 objective lens). On excitation (ex 494 nm, em 524 nm), the DNA-bound SYBR® Green emits green light. […] If DNA damage has occurred, the alkali treatment causes the DNA to […], releasing fragments that migrate outside the cell when exposed to an electric field. The negatively charged DNA migrates to the anode, the extrusion length being proportional to the relaxation of the supercoiled structure, which is an indicator of damage. When alkaline electrophoresis conditions are employed, the distribution of the DNA between the tail and comet head can be used to determine the extent of the DNA damage. The images of the cells were analysed with OpenComet in conjunction with ImageJ software. In each replicate of the analysis, a minimum value of 500 events was analysed.

[2] = system: normal human epidermal keratinocytes (NHEK); experiment: ROS production after UV irradiation (2,7-DCDHF-DA fluorescence); assay type: cell-based
Protocol: as §1, §2
The intracellular formation of reactive […] species (ROS) is inter alia a factor that leads to damage of cellular DNA by UV radiation.
96-well plates were seeded with keratinocytes, which were cultured for 24 hours in culture medium and then for a further 24 hours in assay medium. The medium was then replaced by a test medium containing the test compounds or the references (100 μM vitamin E and 10 μM EGCG) or in which they were absent (irradiated control) and the cells were preincubated for 24 hours. After preincubation, the medium was removed and replaced by assay medium, the fluorescent probe (2,7-dichlorodihydrofluorescein diacetate (10 μM 2,7-DCDHF-DA in assay medium) was added and the cells were incubated at 37° C. for 30 minutes. The cells were then washed with PBS solution and irradiated with 100 mJ/cm^2 UVB+UVA (+0.7 J/cm^2) without compounds or references. The lamp used was a SOL500 solar simulator with H2 filter (Dr. Honle, AG). After irradiation, the cells were incubated for 30 minutes. An unirradiated control and the conditions without sample (background noise) were carried out in parallel.
All experimental conditions were carried out in triplicate.
The emitted intensity of fluorescence (ex=485 nm, em=538 nm) was measured using an EnVision® (Perkin Elmer) microplate reader.
The intensity of fluorescence of the metabolized sample (DCF) was proportional to the formation of ROS. ROS production was therefore expressed as the relative intensity of fluorescence.

sun-stressed skin [3] = experiment: In-vivo study: density of the dermis by ultrasound on outside of forearm; parameters: species or system human; unit not given here; conditions: formulation applied twice daily to forearm; for Δ skin density W2 − W0: after 2 weeks; for Δ skin density W4 − W0: after 4 weeks; for Δ skin density W8 − W0: after 8 weeks
Protocol: (§3) For the in-vivo study, 24 test subjects (male and female) with sun-stressed skin were recruited. In order to ensure sun-stressed skin, this study was carried out in the period from September to November. […] The test subjects received either two different test formulations, which they applied to one forearm each, or one test formulation. which was applied to one forearm with the second forearm remaining untreated (control). The test formulations were a vehicle and a formulation containing 0.1% of hydroxybutyroyl phytosphingosine (hydroxybutyroyl PS). The various test combinations were assigned to the test subjects randomly. The test subjects applied the test formulations for a period of 8 weeks twice daily to the inside and outside of in each case one forearm. The following measurements on the forearms were carried out before the start of application and after two, four and eight weeks: • 1. Colour measurement: A colorimeter probe (Skin-Colorimeter CL 400, Courage & Khazaka, Cologne) was used to measure the parameters L* and ITA° on the outside of the forearm. L* describes the black/white value of the skin, ITA° describes the skin tone. When skin becomes lighter, both values show an increase. • 2. Skin roughness: This parameter was determined by means of a special camera on the inside of the forearm (Visioscan VC 98, Courage & Khazaka). This camera records a digital black-and-white image of the skin. The grayscale distribution of the image can be used to determine the skin roughness. • 3. Density of the dermis: The density of the dermis was determined by ultrasound on the outside of the forearm (SkinLab Combo, Cortex Technologies, Denmark). For this, a special probe transmits an ultrasound signal to the skin and records the reflection. This reflection can be used to determine a value for the skin density. A reduced skin density is shown in particular by areas of skin that have been very strongly exposed to sunlight.

sun-stressed skin [4] = experiment: In-vivo study: skin colour measurement (L*, ITA°) on outside of forearm; parameters: species or system human; conditions: formulation applied twice daily to forearm; for ΔITA° W2 − W0 / ΔL* W2 − W0: after 2 weeks; for ΔITA° W4 − W0 / ΔL* W4 − W0: after 4 weeks; for ΔITA° W8 − W0 / ΔL* W8 − W0: after 8 weeks
Protocol: as §3

sun-stressed skin [5] = experiment: In-vivo study: skin roughness on inside of forearm (Visioscan VC 98); parameters: species or system human; unit not given here; conditions: formulation applied twice daily to forearm; for Decrease in roughness W2 − W0: after 2 weeks; for Decrease in roughness W4 − W0: after 4 weeks; for Decrease in roughness W8 − W0: after 8 weeks
Protocol: as §3

[6] = 10 μM, 24 h preincubation, 250 mJ/cm^2 UVB+UVA
[7] = 10 μM, 24 h preincubation, 100 mJ/cm^2 UVB+UVA
[8] = 5 μM, 24 h preincubation, 100 mJ/cm^2 UVB+UVA

| Compound | protective effect against DNA damage after UV irradiation ([1]; concentration not stated (FIG. 2)) | protective effect against the formation of ROS ([2]; concentration not stated (FIG. 1; with increasing concentration)) | Δ skin density W2 − W0 (sun-stressed skin [3]) | Δ skin density W4 − W0 (sun-stressed skin [3]) | Δ skin density W8 − W0 (sun-stressed skin [3]) | ΔITA° W2 − W0 (sun-stressed skin [4]) | ΔL* W2 − W0 (sun-stressed skin [4]) | ΔITA° W4 − W0 (sun-stressed skin [4]) | ΔL* W4 − W0 (sun-stressed skin [4]) | ΔITA° W8 − W0 (sun-stressed skin [4]) | ΔL* W8 − W0 (sun-stressed skin [4]) | protective effect against DNA damage after UV irradiation [1, 6] | Decrease in roughness W2 − W0 (sun-stressed skin [5]) | Decrease in roughness W4 − W0 (sun-stressed skin [5]) | Decrease in roughness W8 − W0 (sun-stressed skin [5]) | protective effect against the formation of ROS [2, 7] | protective effect against DNA damage after UV irradiation ([1]; 2 μM, 24 h preincubation, 250 mJ/cm^2 UVB+UVA) | protective effect against the formation of ROS [2, 8] | protective effect against DNA damage after UV irradiation ([1]; reference 0.3 mM, 250 mJ/cm^2 UVB+UVA) | protective effect against DNA damage after UV irradiation ([1]; 5 μM, 24 h preincubation, 250 mJ/cm^2 UVB+UVA) |
| --- | --- | --- | --- | --- | --- | --- | --- | --- | --- | --- | --- | --- | --- | --- | --- | --- | --- | --- | --- | --- |
| CCCCCCCCCCCCCC[C@@H](O)[C@@H](O)[C@@H](N)CO [phytosphingosine] | cannot be demonstrated | No significant protective effect | – | – | – | – | – | – | – | – | – | – | – | – | – | – | – | – | – | – |
| Ceramide 3 [Cer 3] | – | – | 1.20 | 1.50 | 1.80 | 2.34 | 0.60 | 5.21 | 1.82 | 8.79 | 2.61 | 12% | 0.05 | −5.12 | −4.66 | 4% | – | – | – | – |
| CCCCCCCCCCCCCCC(O)C(O)C(CO)NC(=O)C(O)C(C)(C)CO (centres unmarked) [Example 5, 2-hydroxy-3,3-dimethyl-hydroxybutyroyl phytosphingosine] | – | – | – | – | – | – | – | – | – | – | – | – | – | – | – | – | 39% | 38% | – | – |
| O=S(=O)(O)c1cc(O)c(O)c(S(=O)(=O)O)c1 [tiron] | – | – | – | – | – | – | – | – | – | – | – | – | – | – | – | – | – | – | approximately 60% | – |
| 6-Hydroxyhexanoyl phytosphingosine [Ex 1b] | – | – | 3.33 | 4.24 | 4.63 | 5.11 | 1.38 | 7.53 | 2.51 | 12.24 | 4.38 | – | −6.20 | −14.36 | −15.88 | – | – | – | – | – |
| CCCCCCCCCCCCCCC[C@@H](O)[C@H](CO)NC(=O)C(O)C(C)(C)CO (some centres unmarked) [Ex 5b, 2-hydroxy-3,3-dimethyl-hydroxybutyroyl sphinganine] | – | – | 2.23 | 3.25 | 3.64 | 3.54 | 0.92 | 6.21 | 2.02 | 10.52 | 3.28 | – | −3.2 | −12.34 | −13.63 | – | – | 22% | – | 24% |
| 3-Hydroxypropioyl phytosphingosine [Ex 1c] | – | – | .82 | 0.98 | 0.82 | 2.41 | 0.58 | 4.89 | 1.92 | 8.67 | 2.55 | 13% | −1.20 | −5.55 | −6.21 | 5% | – | – | – | – |
